# Source: paper PMC4457840, “Differential Inhibition of Signal Peptide Peptidase Family Members by Established γ-Secretase Inhibitors” (PLoS ONE, 2015)
# Entries after “also recorded” stand apart in the source; their conditions may differ.
# Experiments:
# SPPL2a [1] = biological target: T1, SPPL2a (Homo sapiens, UniProt Q8TCT8); experiment: FBA/SPPL2a co-transfected HEK 293T cell cleavage assay (Aβ ELISA, Western blot); type: cell-based
# T1 construct: expressed in transfected cells; host or cells: HEK 293T
# T1 sequence (Q8TCT8 26-520): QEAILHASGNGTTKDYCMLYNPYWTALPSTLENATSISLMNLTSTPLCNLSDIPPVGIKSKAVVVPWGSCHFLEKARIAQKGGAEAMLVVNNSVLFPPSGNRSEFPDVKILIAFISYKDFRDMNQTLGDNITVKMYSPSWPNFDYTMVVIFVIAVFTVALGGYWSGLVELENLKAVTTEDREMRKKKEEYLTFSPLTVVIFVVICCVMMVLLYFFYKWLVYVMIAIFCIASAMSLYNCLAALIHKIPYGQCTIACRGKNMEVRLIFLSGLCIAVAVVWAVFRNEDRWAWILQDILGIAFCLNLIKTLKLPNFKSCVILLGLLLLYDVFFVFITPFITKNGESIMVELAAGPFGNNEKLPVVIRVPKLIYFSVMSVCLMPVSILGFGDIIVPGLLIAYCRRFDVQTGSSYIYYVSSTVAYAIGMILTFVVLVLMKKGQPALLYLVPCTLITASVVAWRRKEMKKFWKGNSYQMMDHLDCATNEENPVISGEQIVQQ
# Description: (§1) Expression constructs in pcDNA6 for COOH-terminal FLAG (DYKDDDDK) and strep (WSHPQFEK) tagged SPPL2a, SPPL2b, hSPP and pSPP were generated as previously described. Untagged versions of all enzymes were also made and ligated into the pAG3 vector. Substrates (Fig 1) were designed as follows: FLAG-BRI2_1-81- Aβ1-25/K16A (FBA). The K16A mutation was incorporated to prevent potential α-secretase cleavage that would preclude ELISA based detection of the released COOH-terminal fragment. The substrate DNA was cloned into the expression vector pcDNA6. Constructs were confirmed by DNA sequencing. The overexpression of substrates was performed by transiently transfecting human embryonic kidney (HEK 293T) cells with or without SPP/SPPL vectors. Cells were grown in DMEM media supplemented with Hyclone 10% fetal bovine serum (GE, Logan, Utah, USA) and 1% penicillin/streptomycin (Life Technologies, Grand Island, NY, USA). Briefly, 2.7 μg DNA was applied to a 75% confluent 6 well plate (Corning, Tewksbury, MA, USA) using the polycation polyethylenimine (PEI) transfection method. Inhibitor testing experiments were conducted in 48 well plates with appropriately adjusted amounts of DNA and PEI and incubated 12–16 hours, after which the growth medium was replaced with fresh medium. DMSO (Sigma, St. Louis, MO, USA) and GSIs were added at the appropriate concentration. The GSIs, L685,458 and Compound W were purchased from Tocris (Tocris, Bristol, UK). (Z-LL)2 ketone, Compound E, DAPT, GSI II were purchased from Calbiochem (Merck Millipore, Billerica, MA, USA). LY-411,575 was synthesized by A. Fauq at the Mayo Clinic Chemical Core. Twenty-four hours later, the medium was collected for assay by ELISA and MS. A20 cells (TIB-208) (ATCC, Manassas, VA, USA) were cultured in RPMI-1640 medium (ATCC) supplied with 10% fetal bovine serum, 1% penicillin/streptomycin and 0.05 mM 2-mercaptoethanol (Life Technologies). At the density of 5x10^5 cells/ml, A20 cells were spun down at 1000 g for 2 min and resuspended in fresh medium supplied with DMSO or GSIs and incubated for 16 hr.
# (§2) Sandwich ELISAs used for Aβ detection were performed as previously described. Briefly, Aβ and Aβ adducts with substrate TMD in conditioned media was captured with Ab5 antibody (human Aβ1–16 specific) and detected with horseradish peroxidase mAb 4G8 (Covance, Princeton, NJ, USA). Synthetic Aβ1–40 was used as standard. All ELISAs were developed with TMB substrate (KPL, Gaithersburg, Maryland, USA). Bis-Tris precast gels (Biorad, Hercules, CA, USA) were used for all SDS-PAGE. Monoclonal anti-FLAG M2 antibody (Sigma) and Aβ1–16 antibody 6E10 (Covance) were used for Western blotting. Antisera against SPPL2a, SPPL2b, hSPP and pSPP were generated as previously described and were used at dilution of 1:1000 for Western blotting. Anti-CD74 In-1 antibody (BD Bioscience, San Jose, CA, USA) was used for A20 cell lysate Western blotting at dilution of 1:1000.
# pSPP = pSPP (Plasmodium falciparum, UniProt Q8IKQ9); experiment: FBA/pSPP co-transfected HEK 293T cell cleavage assay (Aβ ELISA, Western blot, IP/MS); type: cell-based, human; conditions: for inhibition of xAβ1-25/K16A secretion (in words): 25 μM, ELISA
# Chain of pSPP (Q8IKQ9 entry or part of it): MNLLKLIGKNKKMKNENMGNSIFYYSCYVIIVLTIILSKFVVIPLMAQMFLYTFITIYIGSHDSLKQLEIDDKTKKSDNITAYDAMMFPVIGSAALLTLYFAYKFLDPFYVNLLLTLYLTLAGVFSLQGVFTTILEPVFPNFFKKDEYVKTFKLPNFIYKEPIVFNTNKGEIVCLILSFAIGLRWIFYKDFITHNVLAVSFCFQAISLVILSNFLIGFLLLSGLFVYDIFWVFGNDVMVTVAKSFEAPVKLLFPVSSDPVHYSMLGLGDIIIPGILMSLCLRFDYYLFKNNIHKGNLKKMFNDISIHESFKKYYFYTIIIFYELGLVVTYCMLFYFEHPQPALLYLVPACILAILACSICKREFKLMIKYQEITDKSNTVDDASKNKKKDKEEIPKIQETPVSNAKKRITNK
# Description: as §1, §2
# (§3) Immunoprecipitation and mass spectrometry of xAβ1–25 in conditioned media were performed as previously described. In this study, 10 ml conditioned media were used for each experiment. ICDs were immunoprecipitated with anti-FLAG M2 magnetic beads. Cells from 10 cm dished treated with DMSO or 20 μM LY-411,575 were used for each test.
# SPPL2b = biological target: T2, SPPL2b (Homo sapiens, UniProt Q8TCT7); experiment: FBA/SPPL2b co-transfected HEK 293T cell cleavage assay (Aβ ELISA, Western blot, IP/MS); type: cell-based
# T2 construct: expressed in transfected cells; host or cells: HEK 293T
# T2 sequence (Q8TCT7 26-592): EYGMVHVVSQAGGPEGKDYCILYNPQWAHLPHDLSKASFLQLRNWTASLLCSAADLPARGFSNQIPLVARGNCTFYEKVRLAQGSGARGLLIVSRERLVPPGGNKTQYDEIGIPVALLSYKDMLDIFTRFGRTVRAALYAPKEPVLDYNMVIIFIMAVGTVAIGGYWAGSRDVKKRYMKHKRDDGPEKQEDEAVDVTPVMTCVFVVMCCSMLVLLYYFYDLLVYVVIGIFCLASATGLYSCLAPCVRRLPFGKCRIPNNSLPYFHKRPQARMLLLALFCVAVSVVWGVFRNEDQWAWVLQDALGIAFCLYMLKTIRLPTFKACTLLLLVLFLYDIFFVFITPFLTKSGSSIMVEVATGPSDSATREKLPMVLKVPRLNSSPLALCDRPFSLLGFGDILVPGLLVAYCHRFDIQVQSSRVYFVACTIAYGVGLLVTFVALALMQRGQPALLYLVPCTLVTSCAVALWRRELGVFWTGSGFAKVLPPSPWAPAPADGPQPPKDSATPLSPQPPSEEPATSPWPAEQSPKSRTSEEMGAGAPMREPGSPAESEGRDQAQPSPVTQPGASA
# Description: as §1, §2, §3
# hSPP = biological target: T3, hSPP (Homo sapiens, UniProt Q8TCT9); experiment: FBA/hSPP co-transfected HEK 293T cell cleavage assay (Aβ ELISA, Western blot, IP/MS); type: cell-based; conditions: for IC50: HEK cells, 24 h, xAβ1-25/K16A by Aβ ELISA, mean ± standard error, read-out: IC50 on FBA/SPPL co-transfected cells
# T3 construct: expressed in transfected cells; host or cells: HEK 293T
# T3 sequence (Q8TCT9 1-377): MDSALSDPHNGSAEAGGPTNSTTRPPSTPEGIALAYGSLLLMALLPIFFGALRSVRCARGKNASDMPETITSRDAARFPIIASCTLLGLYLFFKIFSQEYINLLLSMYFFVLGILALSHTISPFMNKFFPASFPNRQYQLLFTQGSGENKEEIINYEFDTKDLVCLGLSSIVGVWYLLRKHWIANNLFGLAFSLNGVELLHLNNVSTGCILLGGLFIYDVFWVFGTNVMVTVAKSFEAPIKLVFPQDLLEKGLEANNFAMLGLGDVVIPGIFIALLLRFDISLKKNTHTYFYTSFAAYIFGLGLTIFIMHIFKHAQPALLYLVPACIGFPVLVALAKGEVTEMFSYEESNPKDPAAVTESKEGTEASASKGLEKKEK
# Description: as §1, §2, §3
# SPPL2a [2] = tested on: T4, SPPL2a; experiment: Endogenous CD74 NTF P8 turnover in non-overexpressing A20 cells (Western blot, In-1 antibody); type: cell-based, mouse
# T4 construct: endogenous SPPL2a cleavage of CD74 in a murine B-Cell line; host or cells: A20 mouse B lymphocyte cells
# Description: as §1, with “Untagged” for “Expression constructs in pcDNA6 for COOH-terminal FLAG (DYKDDDDK) and strep (WSHPQFEK) tagged SPPL2a, SPPL2b, hSPP and pSPP were generated as previously described. Untagged”
# as §2
# SPP = tested on: SPP; parameters: method as in PMID 15252014, PMID 19337374, PMID 12621027; conditions: cited from earlier work
# [3] = HEK cells, 24 h, xAβ1-25/K16A by Aβ ELISA, mean ± standard error, read-out: IC50 on FBA/SPPL co-transfected cells
# [4] = HEK-293T, 25 μM, ELISA, DMSO = 100%, read-out: inhibition of the SPP/SPPLs
# [5] = number in parenthesis in Table 3
compound,measurement,setting,value
"O=C(O)c1cc(Oc2ccc([N+](=O)[O-])cc2)cc(Oc2ccc([N+](=O)[O-])cc2)c1 [Comp W, Compound W]",inhibition of xAβ1-25/K16A secretion (in words),"SPPL2a [1]; 25 μM, ELISA",does not show inhibition
same,inhibition of xAβ1-25/K16A secretion (in words),pSPP; pSPP,does not show inhibition
same,inhibition of xAβ1-25/K16A secretion (in words),"SPPL2b; 25 μM, ELISA",does not show inhibition
same,inhibition of xAβ1-25/K16A secretion (in words),"hSPP; 25 μM, ELISA",does not show inhibition
C[C@H](NC(=O)Cc1cc(F)cc(F)c1)C(=O)N[C@@H]1C(=O)N(C)c2ccccc2-c2ccccc21 [DBZ],dose response of P8 fragment stabilization (in words),SPPL2a [2]; different doses,stabilized the P8 fragment in a dose dependent manner; also recorded: much weaker inhibition
same,concentration at which effect was first seen,SPPL2a [2]; dose response,1 µM
same,inhibition of FBA cleavage (10 kD ICD) by Western blot,SPPL2b; Fig 3C upper panel,slightly reduce
same,inhibition of xAβ1-25/K16A secretion (in words),"hSPP; 25 μM, ELISA",inhibited; also recorded: selectively inhibit hSPP cleavage
same,inhibition of FBA cleavage by Western blot,hSPP; Fig 3C lower panel,efficiently inhibited
same,IC50,hSPP,948 ± 93 nM
"CC(C)C[C@H](NC(=O)[C@H](Cc1ccccc1)C[C@@H](O)[C@H](Cc1ccccc1)NC(=O)OC(C)(C)C)C(=O)N[C@@H](Cc1ccccc1)C(N)=O [L685,458]",inhibition of xAβ1-25/K16A secretion (in words),"SPPL2a [1]; 25 μM, ELISA",largely inhibited
same,IC50,SPPL2a [1]; [3],570 ± 90 nM
same,inhibition at 25 µM,SPPL2a [1]; [4],> 90%
same,rank order of inhibition,SPPL2a [1]; [5],3
same,IC50,pSPP,161 ± 97 nM
same,inhibition at 25 µM,"pSPP; HEK-293T, read-out: inhibition of the SPP/SPPLs",> 90%
same,inhibition of xAβ1-25/K16A secretion (in words),pSPP; pSPP,largely inhibited
same,rank order of inhibition,"pSPP; pSPP, number in parenthesis in Table 3",1
same,inhibition of xAβ1-25/K16A secretion (in words),"SPPL2b; 25 μM, ELISA",largely inhibited
same,IC50,SPPL2b; [3],876 ± 133 nM
same,inhibition at 25 µM,SPPL2b; [4],> 90%
same,rank order of inhibition,SPPL2b; [5],1
same,inhibition of SPP activity,SPP,inhibit the activity of SPP
same,inhibition of xAβ1-25/K16A secretion (in words),"hSPP; 25 μM, ELISA",largely inhibited
same,IC50,hSPP,319 ± 91 nM
same,inhibition at 25 µM,hSPP; [4],> 90%
same,rank order of inhibition,hSPP; [5],2
